From BindingDB's records for doi:10.1002/(SICI)1098-2396(199702)25:2 (University of Toronto, 1997)

Target: D(2) dopamine receptor (Mus musculus, UniProt P61168)
Sequence (P61168 whole entry): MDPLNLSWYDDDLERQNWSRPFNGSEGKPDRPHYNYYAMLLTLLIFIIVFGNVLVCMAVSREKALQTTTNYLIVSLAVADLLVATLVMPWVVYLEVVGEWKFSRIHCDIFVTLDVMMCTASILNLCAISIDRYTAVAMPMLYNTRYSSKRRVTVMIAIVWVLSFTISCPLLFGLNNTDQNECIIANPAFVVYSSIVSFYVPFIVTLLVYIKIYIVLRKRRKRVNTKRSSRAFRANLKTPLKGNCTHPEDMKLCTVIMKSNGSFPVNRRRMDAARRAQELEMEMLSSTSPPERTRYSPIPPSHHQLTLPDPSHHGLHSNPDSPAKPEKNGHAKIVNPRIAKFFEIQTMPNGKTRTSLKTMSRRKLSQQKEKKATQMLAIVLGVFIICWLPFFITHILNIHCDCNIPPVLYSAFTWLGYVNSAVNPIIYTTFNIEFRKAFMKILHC

**Q.** How did the Ki turn out when `CCN1CCC[C@@H]1CNC(=O)c1cc(S(N)(=O)=O)ccc1OC` [Sulpiride-R] was run?
**A.** 1060 nM

**Q.** `CCN1CCC[C@H]1CNC(=O)c1cc(S(N)(=O)=O)ccc1OC` [Sulpiride-S] was tested. Which Ki did it give?
**A.** 1470 nM
